# From ChEMBL document CHEMBL1201862, “PubChem BioAssay data set” (2004)
#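 Exposure lasted 48 hours, with cells grown in 96-well plates and compounds tested at five concentrations. The concentration for 50% growth inhibition is given as GI50.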 Calls of active or inactive are those of the source. Cut-off read from the data, not from the text of the source: active = GI50 up to about 1.1 µM and inactive = higher.
# Key:
# Assay in all cases: inhibition of tumour cell growth, NCI panel, 48 h
# [1] = test system: LOX IMVI
# [2] = test system: HL-60
# [3] = test system: SF-295
# [4] = test system: HCT-15
# [5] = test system: UACC-257
# [6] = test system: HCT-116
# [7] = test system: SNB-19
# [8] = test system: IGROV-1
# [9] = test system: NCI-H23
# [10] = test system: LXFL 529
# [11] = test system: SK-OV-3
# [12] = test system: M19-MEL
# [13] = test system: COLO 205
# [14] = test system: CCRF-CEM
# [15] = test system: SK-MEL-2
# [16] = test system: UO-31
# [17] = test system: SF-268
# [18] = test system: A549
# [19] = test system: TK-10
# [20] = test system: DMS-114
# [21] = test system: KM12
# [22] = test system: HOP-92
# [23] = test system: U-251
# [24] = test system: 786-0
# [25] = test system: HOP-18
# [26] = test system: SK-MEL-28
# [27] = test system: NCI-H522
# [28] = test system: NCI-H460
# [29] = test system: DLD-1
# [30] = test system: SN12C
# [31] = test system: MOLT-4
# [32] = test system: Malme-3M
# [33] = test system: EKVX
# [34] = test system: XF498
# [35] = test system: M14
# [36] = test system: SNB-75
# [37] = test system: KM-20L2
# [38] = test system: OVCAR-5
# [39] = test system: SW-620
# [40] = test system: SF-539
# [41] = test system: OVCAR-3
# [42] = test system: OVCAR-8
# [43] = test system: K562
# [44] = test system: SK-MEL-5
# [45] = test system: UACC-62
# [46] = test system: ACHN
# [47] = test system: SNB-78
# [48] = test system: DMS-273
# [49] = test system: OVCAR-4
# [50] = test system: NCI-H226
# [51] = test system: HT-29
# [52] = test system: HCC 2998
# [53] = test system: RXF 393
# [54] = test system: RPMI-8226
# [55] = test system: PC-3
# [56] = test system: HOP-62
# [57] = test system: DU-145
# [58] = test system: Hs-578T
# [59] = test system: MCF7
# [60] = test system: MDA-MB-435
# [61] = test system: SR
# [62] = test system: NCI/ADR-RES
# [63] = test system: MDA-MB-231
# [64] = test system: BT-549
# [65] = test system: MDA-N
# [66] = test system: T47D
# [67] = test system: CAKI-1
# [68] = test system: A498
smiles,measurement,setting,value
Cc1cn(C2CC(n3cncn3)C(C(C)O)O2)c(=O)[nH]c1=O (stereo unspecified),GI50,[1],> 0.1 mM (inactive)
same,GI50,[2],> 0.1 mM (inactive)
same,GI50,[3],> 0.1 mM (inactive)
same,GI50,[4],> 0.1 mM
same,GI50,[5],> 0.1 mM (inactive)
same,GI50,[6],> 0.1 mM (inactive)
same,GI50,[7],> 0.1 mM (inactive)
same,GI50,[8],> 0.1 mM (inactive)
same,GI50,[9],> 0.1 mM (inactive)
same,GI50,[10],> 0.1 mM (inactive)
same,GI50,[11],> 0.1 mM (inactive)
same,GI50,[12],> 0.1 mM (inactive)
same,GI50,[13],> 0.1 mM (inactive)
same,GI50,[14],> 0.1 mM (inactive)
same,GI50,[15],> 0.1 mM (inactive)
same,GI50,[16],> 0.1 mM (inactive)
same,GI50,[17],> 0.1 mM (inactive)
same,GI50,[18],> 0.1 mM (inactive)
same,GI50,[19],> 0.1 mM (inactive)
same,GI50,[20],> 0.1 mM (inactive)
same,GI50,[21],> 0.1 mM (inactive)
same,GI50,[22],> 0.1 mM (inactive)
same,GI50,[23],> 0.1 mM (inactive)
same,GI50,[24],> 0.1 mM (inactive)
same,GI50,[25],> 0.1 mM (inactive)
same,GI50,[26],> 0.1 mM (inactive)
same,GI50,[27],> 0.1 mM (inactive)
same,GI50,[28],> 0.1 mM (inactive)
same,GI50,[29],> 0.1 mM (inactive)
same,GI50,[30],> 0.1 mM (inactive)
same,GI50,[31],> 0.1 mM (inactive)
same,GI50,[32],> 0.1 mM (inactive)
same,GI50,[33],> 0.1 mM (inactive)
same,GI50,[34],> 0.1 mM (inactive)
same,GI50,[35],> 0.1 mM (inactive)
same,GI50,[36],> 0.1 mM (inactive)
same,GI50,[37],> 0.1 mM (inactive)
same,GI50,[38],> 0.1 mM (inactive)
same,GI50,[39],> 0.1 mM (inactive)
same,GI50,[40],> 0.1 mM (inactive)
same,GI50,[41],> 0.1 mM (inactive)
same,GI50,[42],> 0.1 mM (inactive)
same,GI50,[43],> 0.1 mM (inactive)
same,GI50,[44],> 0.1 mM (inactive)
same,GI50,[45],> 0.1 mM (inactive)
same,GI50,[46],> 0.1 mM (inactive)
same,GI50,[47],> 0.1 mM (inactive)
same,GI50,[48],> 0.1 mM (inactive)
same,GI50,[49],> 0.1 mM (inactive)
same,GI50,[50],> 0.1 mM (inactive)
same,GI50,[51],> 0.1 mM (inactive)
same,GI50,[52],> 0.1 mM (inactive)
same,GI50,[53],> 0.1 mM (inactive)
same,GI50,[54],> 0.1 mM (inactive)
CC(=O)NCCCCCCNC(C)=O [HEXAMETHYLENEBISACETAMIDE],GI50,[1],4.68 mM (inactive)
same,GI50,[55],8.18 mM (inactive)
same,GI50,[2],3.45 mM (inactive)
same,GI50,[3],6.37 mM (inactive)
same,GI50,[4],5.53 mM
same,GI50,[5],7.08 mM (inactive)
same,GI50,[6],8.47 mM (inactive)
same,GI50,[7],8.51 mM (inactive)
same,GI50,[8],9.18 mM (inactive)
same,GI50,[9],9.16 mM (inactive)
same,GI50,[56],6.59 mM (inactive)
same,GI50,[57],> 8.83 mM (inactive)
same,GI50,[11],8.93 mM (inactive)
same,GI50,[12],5.75 mM (inactive)
same,GI50,[13],5.38 mM (inactive)
same,GI50,[14],7.67 mM (inactive)
same,GI50,[15],6.59 mM (inactive)
same,GI50,[58],5.79 mM (inactive)
same,GI50,[59],3.48 mM (inactive)
same,GI50,[16],5.25 mM (inactive)
same,GI50,[60],4.01 mM (inactive)
same,GI50,[17],8.91 mM (inactive)
same,GI50,[61],> 8.53 mM (inactive)
same,GI50,[18],2.29 mM (inactive)
same,GI50,[19],4.3 mM (inactive)
same,GI50,[20],3.86 mM (inactive)
same,GI50,[21],8.45 mM (inactive)
same,GI50,[22],3.56 mM (inactive)
same,GI50,[23],7.83 mM (inactive)
same,GI50,[24],> 10 mM (inactive)
same,GI50,[25],7.53 mM (inactive)
same,GI50,[26],6.98 mM (inactive)
same,GI50,[27],3.23 mM (inactive)
same,GI50,[28],4.81 mM (inactive)
same,GI50,[29],8.24 mM (inactive)
same,GI50,[30],7.5 mM (inactive)
same,GI50,[31],7.28 mM (inactive)
same,GI50,[32],3.16 mM (inactive)
same,GI50,[33],7.28 mM (inactive)
same,GI50,[62],7.41 mM (inactive)
same,GI50,[34],3.18 mM (inactive)
same,GI50,[35],6.04 mM (inactive)
same,GI50,[63],4.18 mM (inactive)
same,GI50,[64],> 10 mM (inactive)
same,GI50,[36],2.84 mM (inactive)
same,GI50,[37],5.22 mM (inactive)
same,GI50,[65],7.57 mM (inactive)
same,GI50,[38],8.24 mM (inactive)
same,GI50,[39],> 3.57 mM (inactive)
same,GI50,[40],6.07 mM (inactive)
same,GI50,[41],8.18 mM (inactive)
same,GI50,[42],7.62 mM (inactive)
same,GI50,[43],5.74 mM (inactive)
same,GI50,[44],6.7 mM (inactive)
same,GI50,[45],4.05 mM (inactive)
same,GI50,[46],> 10 mM (inactive)
same,GI50,[47],6.59 mM (inactive)
same,GI50,[66],> 5.68 mM (inactive)
same,GI50,[48],3.6 mM (inactive)
same,GI50,[67],1.79 mM (inactive)
same,GI50,[49],6.55 mM (inactive)
same,GI50,[50],6.81 mM (inactive)
same,GI50,[68],5.79 mM (inactive)
same,GI50,[51],4.84 mM (inactive)
same,GI50,[52],4.29 mM (inactive)
same,GI50,[53],9.86 mM (inactive)
same,GI50,[54],4.65 mM (inactive)
